Patent US20240148821A1, “PHARMACEUTICAL USE OF CYCLIC PEPTIDE COMPOUND” (CHUGAI SEIYAKU KABUSHIKI KAISHA, priority 2021, published 2024)
Numbered stars: 1 amine (or outer) side, 2 acyl side, 3 side chain; on linkers, the order of the positions; unused ones are H or OH. Bridge positions count the residues as written; N and C are the ends. Square brackets hold non-standard residues; d marks the D form. Peptide text beside a SMILES is read from it. * marks the point of attachment. hPhe(3-Cl-4-CF3) = N[C@@H](CCc1ccc(C(F)(F)F)c(Cl)c1)C(=O)O; X52 = CN([C@@H](Cc1ccccc1OC(F)(F)F)C(=O)[*:2])[*:1]; X24 = COc1cncc(C[C@@H](C(=O)[*:2])N(C)[*:1])c1; NMePhe(4-Cl) = CN[C@@H](Cc1ccc(Cl)cc1)C(=O)O; NMePhe(4-F) = CN[C@@H](Cc1ccc(F)cc1)C(=O)O; hPhe(3-Cl) = N[C@@H](CCc1cccc(Cl)c1)C(=O)O; Leu(4,5-dehydro) = C=C(C)C[C@H](N)C(=O)O; NMeAla(cPent) = CN[C@@H](CC1CCCC1)C(=O)O; NMeGly(cPent) = CN[C@H](C(=O)O)C1CCCC1; Phe(3-I) = N[C@@H](Cc1cccc(I)c1)C(=O)O; NMeCha = CN[C@@H](CC1CCCCC1)C(=O)O; NMeChg = CN[C@H](C(=O)O)C1CCCCC1; NMeE = CN[C@@H](CCC(=O)O)C(=O)O; NMeD = CN[C@@H](CC(=O)O)C(=O)O; NMeL = CN[C@@H](CC(C)C)C(=O)O; NEtAla = CCN[C@@H](C)C(=O)O; NMeV = CN[C@H](C(=O)O)C(C)C; d(β3hA) = C[C@@H](N)CC(=O)O; NMeA = CN[C@@H](C)C(=O)O; NMeAib = CNC(C)(C)C(=O)O; Nle = CCCC[C@H](N)C(=O)O; Piperidide = C1CCN(*)CC1; Pra = C#CC[C@H](N)C(=O)O; Ac5c = NC1(C(=O)O)CCCC1; Aze = O=C(O)[C@@H]1CCN1; Sar = CNCC(=O)O

The molecules below were run on Human pancreatic cancer cell line AsPC-1 (G12D mutation Kras) (assay: AsPC-1 cell growth inhibition (AsPC-1 CGI)). Conditions: read-out: AsPC-1 cell growth inhibition, 50% growth inhibitory concentration (IC50 value); 96 hours, CellTiter-Glo, values classified in ranges.
Format: cell-based
Protocol: Test compounds were serially dilated with dimethyl sulfoxide, and 200 nL was then dispensed to a U-bottom 96-well plate using Labcyte Echo. […] The cell suspension was dispensed to a. plate containing a test compound at 100 μL per well and incubated at 37° C. in a 5% carbon dioxide gas incubator. 96 hours later, 80 μL of CellTiter-Glo (Promega) was added to each well and fluorescence was measured.
For `C=C(C)C[C@@H]1NC(=O)[C@H](Cc2cccc(I)c2)NC(=O)CN(C)C(=O)[C@H](Cc2ccc(Cl)cc2)N(C)C(=O)[C@@H]2CCN2C(=O)[C@H](C)N(C)C(=O)[C@H]([C@@H](C)CC)NC(=O)[C@H](CC(C)C)N(C)C(=O)C[C@@H](C(=O)N2CCCCC2)N(C)C(=O)[C@H](CC(C)C)NC(=O)C(C)(C)N(C)C1=O` [Compound 1429] ([NMeL]I[NMeA][Aze][NMePhe(4-Cl)][Sar][Phe(3-I)][Leu(4,5-dehydro)][NMeAib]L[NMeD]-Piperidide; lactam N-11), the IC50 was over 500 nM.
Work on `CCCC[C@@H]1NC(=O)[C@H](Cc2cccc(I)c2)NC(=O)CN(C)C(=O)[C@H](CC2CCCC2)N(C)C(=O)[C@@H]2CCN2C(=O)[C@H](C)N(C)C(=O)[C@H]([C@@H](C)CC)NC(=O)[C@H](CC(C)C)N(C)C(=O)C[C@@H](C(=O)N2CCCCC2)N(C)C(=O)[C@H](CC(C)C)NC(=O)C(C)(C)N(C)C1=O` [Compound 1432] ([NMeL]I[NMeA][Aze][NMeAla(cPent)][Sar][Phe(3-I)][Nle][NMeAib]L[NMeD]-Piperidide; lactam N-11) yielded an IC50 of over 500 nM.
Work on `CC[C@H](C)[C@@H]1NC(=O)[C@H](CC(C)C)N(C)C(=O)C[C@@H](C(=O)N2CCCCC2)N(C)C(=O)[C@H](C2CCCCC2)N(C)C(=O)C2(CCCC2)NC(=O)[C@H](Cc2cncc(OC)c2)N(C)C(=O)[C@H](CCc2ccc(C(F)(F)F)c(Cl)c2)NC(=O)CN(C)C(=O)[C@H](CC2CCCCC2)N(C)C(=O)[C@@H]2CCN2C(=O)CN(C)C1=O` [Compound 770] ([NMeL]I[Sar][Aze][NMeCha][Sar][hPhe(3-Cl-4-CF3)][X24][Ac5c][NMeChg][NMeD]-Piperidide; lactam N-11) yielded an IC50 of over 500 nM.
With `CC[C@H](C)[C@@H]1NC(=O)[C@H](C)N(CC)C(=O)C[C@@H](C)NC(=O)[C@H](C(C)C)N(C)C(=O)C2(CCCC2)NC(=O)[C@@H]2CCCN2C(=O)[C@H](CCc2ccc(C(F)(F)F)c(Cl)c2)NC(=O)CN(C)C(=O)[C@H](CC2CCCCC2)N(C)C(=O)CN(C)C(=O)CN(C)C1=O` [Compound 196] (cyclo([Ac5c][NMeV][d(β3hA)][NEtAla]I[Sar][Sar][NMeCha][Sar][hPhe(3-Cl-4-CF3)]P)) the IC50 was over 500 nM.
Work on `CC[C@H](C)[C@@H]1NC(=O)[C@H](CC(C)C)N(C)C(=O)C[C@@H](C(=O)N(C)C)N(C)C(=O)[C@H](C2CCCC2)N(C)C(=O)C2(CCCC2)NC(=O)[C@H](Cc2ccc(Cl)cc2)N(C)C(=O)[C@H](CCc2ccc(C(F)(F)F)c(Cl)c2)NC(=O)CN(C)C(=O)[C@H](CC2CCCCC2)N(C)C(=O)[C@@H]2CCN2C(=O)[C@H](C)N(C)C1=O` [Compound 1063] ([NMeL]I[NMeA][Aze][NMeCha][Sar][hPhe(3-Cl-4-CF3)][NMePhe(4-Cl)][Ac5c][NMeGly(cPent)][NMeD]-NMe2; lactam N-11) yielded an IC50 of over 500 nM.
`CC[C@H](C)[C@@H]1NC(=O)[C@H](CC(C)C)N(C)C(=O)C[C@@H](C)NC(=O)[C@H](C(C)C)N(C)C(=O)C2(CCCC2)NC(=O)[C@@H]2CCCN2C(=O)[C@H](CCc2ccc(C(F)(F)F)c(Cl)c2)NC(=O)CN(C)C(=O)[C@H](Cc2ccccc2OC(F)(F)F)N(C)C(=O)CN(C)C(=O)CN(C)C1=O` [Compound 1635] (cyclo([Ac5c][NMeV][d(β3hA)][NMeL]I[Sar][Sar][X52][Sar][hPhe(3-Cl-4-CF3)]P)) showed an IC50 of over 500 nM.
`CC[C@H](C)[C@@H]1NC(=O)[C@H](C)N(C)C(=O)C[C@@H](C(=O)N2CCCCC2)N(C)C(=O)[C@H](C(C)C)N(C)C(=O)C2(CCCC2)NC(=O)[C@@H]2CCCN2C(=O)[C@H](CCc2ccc(C(F)(F)F)c(Cl)c2)NC(=O)[C@H]2CCCN2C(=O)[C@H](Cc2ccc(F)cc2)N(C)C(=O)[C@@H]2CCCN2C(=O)CN(C)C1=O` [Compound 1725] ([NMeA]I[Sar]P[NMePhe(4-F)][dP][hPhe(3-Cl-4-CF3)]P[Ac5c][NMeV][NMeD]-Piperidide; lactam N-11) showed an IC50 of over 500 nM.
For `CC[C@H](C)[C@@H]1NC(=O)[C@H](CC(C)C)N(C)C(=O)C[C@@H](C(=O)N2CCCCC2)N(C)C(=O)[C@H](C(C)C)N(C)C(=O)C2(CCCC2)NC(=O)[C@@H]2CCCN2C(=O)[C@H](CCc2ccc(C(F)(F)F)c(Cl)c2)NC(=O)CN(C)C(=O)[C@H](CC2CCCCC2)N(C)C(=O)[C@@H]2CCN2C(=O)[C@H](CCC(=O)NC)N(C)C1=O` [Compound 180] ([NMeL]I[NMeE](NHMe)[Aze][NMeCha][Sar][hPhe(3-Cl-4-CF3)]P[Ac5c][NMeV][NMeD]-Piperidide; lactam N-11), the IC50 was over 500 nM.
Molecule `CC[C@H](C)[C@@H]1NC(=O)[C@H](C)N(C)C(=O)C[C@@H](C(=O)N2CCCCC2)N(C)C(=O)[C@H](C2CCCCC2)N(C)C(=O)C2(CCCC2)NC(=O)[C@@H]2CCCN2C(=O)[C@H](CCc2cccc(Cl)c2)NC(=O)CN(C)C(=O)[C@H](CC2CCCCC2)N(C)C(=O)CN(C)C(=O)CN(C)C1=O` [Compound 954] ([NMeA]I[Sar][Sar][NMeCha][Sar][hPhe(3-Cl)]P[Ac5c][NMeChg][NMeD]-Piperidide; lactam N-11) has an IC50 of over 500 nM.
Molecule `C#CC[C@@H]1NC(=O)[C@H](Cc2cccc(I)c2)NC(=O)CN(C)C(=O)[C@H](Cc2ccc(Cl)cc2)N(C)C(=O)CN(C)C(=O)CN(C)C(=O)[C@H]([C@@H](C)CC)NC(=O)[C@H](CC(C)C)N(C)C(=O)C[C@@H](C(=O)N2CCCCC2)N(C)C(=O)[C@H](CC(C)C)NC(=O)C(C)(C)N(C)C1=O` [Compound 1426] ([NMeL]I[Sar][Sar][NMePhe(4-Cl)][Sar][Phe(3-I)][Pra][NMeAib]L[NMeD]-Piperidide; lactam N-11) has an IC50 of over 500 nM.
